Read-outs that look alike come from different tables or passages of the source.
Tested on: gastric hypersecretion stimulated by pentagastrine
Assay: antisecretory activity on gastric hypersecretion stimulated by pentagastrine in dogs wearing a Heidenhain pouch
Format: in vivo, dog (mongrel)
Conditions: for ED50: Canis lupus familiaris, read-out: ED 50 (dose which reduced by 50% the hourly acid flow)
Experimental: Three mongrel dogs wearing Heidenhain pouches and which were kept without food for 18 hours received a venous perfusion of […] of pentagastrine per hour in a volume of 30 mls per hour for 4 hours. The secretion from the pouch was collected in a flask which was changed every 15 minutes. An hour and a half after the beginning of the perfusion process, the product to be examined was administered orally in a No. 000 gelatin coated pill. […] The doses are expressed in the product in the base form.

[1] = oral, Heidenhain pouch dogs, pentagastrine perfusion, acid flow at 3rd or 4th hour vs second hour, doses expressed as base

SMILES | ED50 [1] [mg/kg] | inhibition of gastric secretion relative to Cimetidine (oral, Heidenhain pouch dogs) | ED50 (po) [mg/kg]
CN(C)S(=O)(=O)c1ccc2c(c1)N(C1CN3CCC1CC3)c1ccccc1[S+]2[O-] (single isomer, unassigned) [Example 2, 10-(1-azabicyclo[2.2.2]oct-3-yl)-N,N dimethyl-10H-phenothiazine-2-sulfonamide S-oxide] | 2.5 | as active as Cimetidine | –
CN/C(=N/CCSCc1nc[nH]c1C)NC#N [Cimetidine, reference compound] | – | – | 2.3
CN(C)S(=O)(=O)c1ccc2c(c1)N(C1CN3CCC1CC3)c1ccccc1[S+]2[O-] (stereo not drawn) [Example 1, 10-(1-azabicyclo[2.2.2]oct-3-yl)-N,N dimethyl-10H-phenothiaxine-2-sulfonamide S-oxide] | 2.3 | as active as Cimetidine | –
CN(C)S(=O)(=O)c1ccc2c(c1)N(C1CN3CCC1CC3)c1ccccc1S2(=O)=O (stereo not drawn) [Example 3, 10-(1-azabicyclo[2.2.2]oct-3-yl)-N,N dimethyl-10H-phenothiazine-2 sulfonamide S-dioxide] | 10 | – | –

From US4435393A, “Derivatives of 10-(1-azabicyclo[2.2.2]oct-3-yl)-N,N dimethyl-10H-phenothiazine-2-sulfonamide as medicaments” (Pharmindustrie, priority 1981, dated 1984)
